Measurements reported in patent US11096929B2 (Ovid Therapeutics Inc., priority 2015, dated 2021).
“Also recorded” adds a separate entry of the source.

How the values were obtained:
[1] = system: healthy elderly male and female subjects; details: in vivo
[2] = system: healthy, male and female subjects; assay: Driving performance (real driving on the road) after evening and middle of the night dosing; type: in vivo, human; details: for effect on memory test, body sway, DSST or critical tracking: cognitive and psychomotor test battery; for effect on memory test, body sway, DSST or critical tracking / effect on driving: gaboxadol 15 mg; for tolerability / most frequent adverse events: 15 mg; for effect on driving: driving test at 9 am
Excerpt: The study participants included healthy, male and female subjects between 21 and 45 years of age, with a valid drivers license for at least 3 years.
Following a cognitive and psychomotor test battery, the driving test started at 9 am and lasted for one hour.

[3] = system: healthy adults subjected to a 5-hour sleep restriction; assay: Daytime performance after sleep restriction (MSLT, SWS, KSS, neurobehavioral battery); type: in vivo, human
Procedure: The study included a 2-night single-blind placebo run-in period, a 4-night double-blind treatment period during which sleep was restricted to 5 hours and a 2-night single-blind placebo run-out period. The study included healthy male and female volunteers 18 to <55 years of age.
2-night run-in period: All patients received placebo ?
2-night run-out period: All patients received placebo
The primary endpoints included observations based on the Multiple Sleep Latency Test (MSLT) and Slow Wave Sleep (SWS) assessment.

[4] = system: subjects with Angelman syndrome; assay: Clinical Global Impressions (CGI-S, CGI-I) in 12-week placebo-controlled Angelman syndrome trial; type: in vivo, human; details: for percentage very much improved on CGI-I: QD group; for responders (one point or greater improvement in the CGI-I scale): once daily dose
Excerpt: CGI-S scale assessed all sub-domains of Angelman syndrome (gross and fine motor ability, sleep, and adaptive behavior) plus globally by the investigator. […] The Clinical Global Impressions-Improvement (CGI-I) scale was used to assess all sub-domains of Angelman syndrome (gross and fine motor ability, sleep, and adaptive behavior) plus globally by the investigator and caregiver. CGI-I is a 7-point scale in which the investigator rates the improvement or worsening of symptoms compared to baseline.

[5] = system: subjects with Angelman syndrome; assay: Sleep diary in 12-week placebo-controlled Angelman syndrome trial; type: in vivo, human; details: for 6-week LS Mean sleep time (total sleep time at night) / 12-week LS Mean sleep time (total sleep time at night): sleep diary
Procedure: This multicenter, randomized, parallel (3-arm), double-blind, placebo-controlled trial enrolled 88 patients including adults (n=66) and adolescents (n=22) aged 13 to 49 years of age, diagnosed with Angelman syndrome. […] The dosing schedules that were assessed against placebo were once daily (QD): An evening dose titrated to the target dose of 15 mg unless not tolerated; and twice daily (BID): Evening and morning doses titrated to the target doses of 15 mg evening dose and 10 mg morning dose unless not tolerated.
The observed and change from baseline in total hours of sleep time at night (assessed from subject Sleep Diary) is provided in Table III.

[6] = system: subjects with Angelman syndrome; assay: Adverse events in 12-week placebo-controlled Angelman syndrome trial; type: in vivo, human
[7] = system: insomnia; details: three-month efficacy study; cited from earlier work
[8] = system: Purkinje cells in cerebellar brain slices; details: low doses; cited from earlier work
[9] = system: Ube3a-deficient mice; details: low doses; Ube3a-deficient mice in vivo; cited from earlier work
[10] = system: patients with a history of drug abuse; details: cited from earlier work
[11] = Plasma concentration profiles, dose proportionality and absolute bioavailability of gaboxadol after single oral doses and 10 mg IV; details: geometric mean, N = 10
[12] = middle-of-the-night (4 am) administration, zolpidem 10 mg
[13] = BID dosing (10 mg morning, 15 mg evening), N = 29

SMILES: CCN(CC)CCN1C(=O)CN=C(c2ccccc2F)c2cc(Cl)ccc21 [Flurazepam]
- residual effect on primary endpoints Choice Reaction Time and Critical Flicker Fusion [1]: showed significant effect

SMILES: Oc1noc2c1CCNC2 [gaboxadol, 4,5,6,7-tetrahydroisoxazolo [5,4-c]pyridine-3-ol]
- effect on memory test, body sway, DSST or critical tracking ([2]; zopiclone 7.5 mg): no effect
- tolerability ([2]; evening dose): well tolerated
- most frequent adverse events ([2]; evening treatment): headache and somnolence
- effect on driving compared with alcohol ([2]; gaboxadol 15 mg evening dose vs 0.05% blood alcohol concentration): less than the effect observed at a 0.05% blood alcohol concentration
- effect on driving [2, 12]: clinically relevant impairing effect
- tolerability ([2]; middle-of-the-night dose): well tolerated
- most frequent adverse events ([2]; middle-of-the-night treatment): dizziness, nausea and somnolence
- biophysiological measures of stress (heart rate variability, cortisol levels, catecholamine levels, body temperature) vs placebo ([3]; 15 mg vs placebo): no differences
- daytime performance, effect sizes for the neurocognitive battery ([3]; 15 mg vs placebo): no strong evidence that gaboxadol improves daytime performance
- subjective daytime sleepiness vs placebo ([3]; 15 mg, Sleep Restriction period): trend towards less subjective daytime sleepiness
- amount of slow wave sleep (SWS) vs placebo ([3]; 15 mg, Sleep Restriction period, p<0.001, 1 sided): increases the amount of slow wave sleep; also recorded: significantly more SWS
- daytime sleepiness (sleep propensity by MSLT) vs placebo ([3]; 15 mg, Sleep Restriction period, p=0.047, 1 sided): protective effect on reducing daytime sleepiness; also recorded: significantly less daytime sleepiness
- MSLT longer than placebo, average ([3]; 15 mg, last two Sleep Restriction days): 2.01 min
- Karolinska Sleepiness Score (KSS) less than placebo, average ([3]; 15 mg, last two Sleep Restriction days, p=0.058, 1 sided, LDA model): 0.68
- SWS longer than placebo, average ([3]; 15 mg, last two Sleep Restriction nights): 20.53 min
- CGI-I 6-week LS Mean [4, 13]: 3.54 (0.16)
- CGI-I 12-week LS Mean [4, 13]: 3.58 (0.16)
- CGI-I 6-week LS Mean difference ([4]; BID dosing minus placebo): −0.06 (0.21)
- CGI-I 12-week LS Mean difference ([4]; BID dosing minus placebo): −0.21 (0.22)
- CGI-I 6-week LS Mean ([4]; Combined QD and BID, N = 58): 3.45 (0.12)
- CGI-I 12-week LS Mean ([4]; Combined QD and BID, N = 58): 3.29 (0.12)
- CGI-I 6-week LS Mean difference ([4]; Combined minus placebo): −0.15 (0.18)
- CGI-I 12-week LS Mean difference ([4]; Combined minus placebo): −0.49 (0.19)
- CGI-I 6-week LS Mean ([4]; QD dosing (15 mg evening), N = 29, 7-point scale, clinician assessed): 3.54 (0.16)
- CGI-I 6-week LS Mean difference ([4]; QD dosing minus placebo): −0.24 (0.21)
- CGI-I 12-week LS Mean difference ([4]; QD dosing minus placebo): −0.78 (0.22)
- percentage very much improved on CGI-I ([4]; 18-24 year old, placebo 9%): 27%
- percentage very much improved on CGI-I ([4]; oldest cohort (25-49), placebo 11%): 20%
- percentage very much improved on CGI-I ([4]; youngest cohort (13-17), placebo 0%): 33%
- CGI-S Hyperactivity, change ([4]; QD, placebo 3.1 to 3.0): 3.5 to 2.9
- CGI-S Stereotypic behavior, change ([4]; QD, placebo 3.3 to 3.6): 3.7 to 3.1
- responders (one point or greater improvement in the CGI-I scale) in overall symptoms ([4]; once daily dose cohort, all ages, placebo 26%): 70%
- responders (one point or greater improvement in the CGI-I scale) ([4]; 13-17 year old, placebo 29%): 83%
- responders (one point or greater improvement in the CGI-I scale) ([4]; 18-24 year old, placebo 27%): 73%
- responders (one point or greater improvement in the CGI-I scale) ([4]; 25-49 year old, placebo 22%): 60%
- 6-week LS Mean difference, sleep time ([5]; BID dosing): 0.30 (1.1) hours
- 12-week LS Mean difference, sleep time ([5]; BID dosing): 0.18 (0.97) hours
- 6-week LS Mean sleep time (total sleep time at night) ([5]; BID dosing, N = 29): 8.95 (1.1) hours
- 12-week LS Mean sleep time (total sleep time at night) ([5]; BID dosing, N = 29): 8.84 (1.1) hours
- 6-week LS Mean difference, sleep time ([5]; Combined): 0.22 (0.94) hours
- 12-week LS Mean difference, sleep time ([5]; Combined): 0.07 (1.0) hours
- 6-week LS Mean sleep time (total sleep time at night) ([5]; Combined, N = 58): 8.93 (1.3) hours
- 12-week LS Mean sleep time (total sleep time at night) ([5]; Combined, N = 58): 8.80 (1.1) hours
- 6-week LS Mean difference, sleep time ([5]; QD dosing): 0.14 (0.81) hours
- 12-week LS Mean difference, sleep time ([5]; QD dosing): −0.04 (1.1) hours
- 6-week LS Mean sleep time (total sleep time at night) ([5]; QD dosing, N = 29): 8.91 (1.5) hours
- 12-week LS Mean sleep time (total sleep time at night) ([5]; QD dosing, N = 29): 8.76 (1.2) hours
- subjects with Abdominal Pain upper, number (%) ([6]; BID dosing, N = 29): 0
- subjects with At least 1 Adverse Event, number (%) ([6]; BID dosing, N = 29): 19 (66%)
- subjects with Diarrhea, number (%) ([6]; BID dosing, N = 29): 1 (3.4%)
- subjects with Gastrointestinal disorders, number (%) ([6]; BID dosing, N = 29): 4 (13.8%)
- subjects with Nausea, number (%) ([6]; BID dosing, N = 29): 2 (6.9%)
- subjects with Retching, number (%) ([6]; BID dosing, N = 29): 1 (3.4%)
- subjects with Vomiting, number (%) ([6]; BID dosing, N = 29): 1 (3.4%)
- subjects with Abdominal Pain upper, number (%) ([6]; Combined, N = 58): 0
- subjects with At least 1 Adverse Event, number (%) ([6]; Combined, N = 58): 37 (64%)
- subjects with Diarrhea, number (%) ([6]; Combined, N = 58): 1 (1.7%)
- subjects with Gastrointestinal disorders, number (%) ([6]; Combined, N = 58): 4 (6.9%)
- subjects with Nausea, number (%) ([6]; Combined, N = 58): 2 (3.4%)
- subjects with Retching, number (%) ([6]; Combined, N = 58): 1 (1.7%)
- subjects with Vomiting, number (%) ([6]; Combined, N = 58): 1 (1.7%)
- subjects with Abdominal Pain upper, number (%) ([6]; QD dosing, N = 29): 0
- subjects with At least 1 Adverse Event, number (%) ([6]; QD dosing, N = 29): 18 (62%)
- subjects with Diarrhea, number (%) ([6]; QD dosing, N = 29): 0
- subjects with Nausea, number (%) ([6]; QD dosing, N = 29): 0
- subjects with Retching, number (%) ([6]; QD dosing, N = 29): 0
- subjects with Vomiting, number (%) ([6]; QD dosing, N = 29): 0
- subjects with Gastrointestinal disorders, number (%) ([6]; QD dosing, N = 29, placebo 6 of 29): 0
- residual effect on primary endpoints Choice Reaction Time and Critical Flicker Fusion [1]: did not show residual effect
- residual effects on other measurements (MSLT, DSST, Tracking, Memory tests, Body Sway, Leeds Sleep Evaluation Questionnaire) [1]: did not show any signs of residual effects
- effects in sleep onset and sleep maintenance [7]: failed to show significant effects
- abnormal firing properties of a population of Purkinje cells [8]: improve the abnormal firing properties
- cerebellar ataxia [9]: reduces cerebellar ataxia
- psychiatric adverse events [10]: steep increase in psychiatric adverse events
- Fe ([11]; 2.5 mg single oral dose): 43%
- Fe ([11]; 5 mg single oral dose): 45%
- Fe ([11]; 10 mg I.V.): 53%
- Fe ([11]; 10 mg Oral): 53%
- Fe ([11]; 15 mg single oral dose): 50%
- Fe ([11]; 20 mg single oral dose): 53%

SMILES: Cc1ccc(-c2nc3ccc(C)cn3c2CC(=O)N(C)C)cc1 [zolpidem]
- effect on driving [2, 12]: numerically greater effect

SMILES: CN1CCN(C(=O)OC2c3nccnc3C(=O)N2c2ccc(Cl)cn2)CC1 (stereo not drawn) [zopiclone]
- effect on memory test, body sway, DSST or critical tracking ([2]; zopiclone 7.5 mg): had effect on several of these tests
- effect on driving ([2]; evening dose, zopiclone 7.5 mg): numerically greater effect
